Like-named read-outs stand apart in the source and are kept apart here.
Columns and labels:
[1] = tested on: BE(2)-M17 cells; experiment: high-content analysis of neurite outgrowth in MPP^+-treated BE(2)-M17 cells; assay type: cell-based, human; conditions: for neurite length: MPP^+ alone 24.2 μm
Method: For automated neuronal morphology analysis, BE(2)-M17 cells were seeded in 24-well plate (5 × 10^4/well) and treated with retinoic acid, LM compounds (10 μM), and MPP^+ as described. On day 7, after being fixed and permeated, cells were stained with TUBB3 (neuronal class III β-tubulin) antibody (#802001; 1:1,000; BioLegend, San Diago, CA, USA) at 4°C overnight, followed by Alexa Fluor 555-donkey anti-rabbit (#A-31572) antibody (1:1,000; Thermo Fisher Scientific) at room temperature for 2 h. TUBB3 is a β-tubulin isoform constitutively expressed in neurons and important for maintaining further neurite elongation (Ferreira and Caceres, [1992]). After nuclei staining with DAPI, neuronal images were captured at 531 nm excitation and 593 nm emission wavelengths (ImageXpress Micro Confocal; Molecular Devices). Microscopic images were segmented with multi-colored mask to assign each outgrowth to a cell body for quantification of neurite outgrowth. Neurite total length (μm) and numbers of primary neurites originated from neuronal cell body (process) and secondary neurites extended from primary neurites (branch) were analyzed (Neurite Outgrowth Application Module; Molecular Devices). For each sample, around 3,000 cells were analyzed in each of three independent experiments.

[2] = tested on: PGC-1α; experiment: Western blot PGC-1α in MPP^+-treated BE(2)-M17 cells; assay type: cell-based, human; conditions: BE(2)-M17, compound 10 μM + 0.62 mM MPP^+; MPP^+ alone 75%; untreated = 100%
Method: (§1) HMC3 (2 × 10^5/6-well) or BE(2)-M17 (4 × 10^5/6-well) cells were lysed in buffer (composition: 50 mM Tris-HCl pH8.0, 2 mM EDTA pH8.0, 150 mM NaCl, 0.5% sodium deoxycholate, 0.1% SDS, 50 mM NaF, 1% NP40) containing the protease and/or phosphatase inhibitor cocktail (Sigma-Aldrich). After sonication, the lysates were centrifuged (12,000 × g for 10 min at 4°C) and protein concentrations determined (Bradford protein assay; Bio-Rad, Hercules, CA, USA). Aliquots of protein (20 μg) were separated by electrophoresis using 10%−12% SDS–polyacrylamide gel followed by transfer to a polyvinylidene fluoride (PVDF) membrane. After being blocked, the PVDF membrane was stained with NLRP3 (#15101s), caspase-1 (CASP1; #3866s), iNOS (#20609), IL-1β (#12242), CREB (#9192), BCL2-associated X (BAX; #2772; 1:1,000; Cell Signaling), IL-6 (#ab6672), TNF-α (#ab9739), GCLC (#ab41463), BDNF (#ab108319; 1:1,000; Abcam, Cambridge, UK), NLRP1 (#NBP-1-54899; 1:500; Novus Biologicals, Centennial, CO, USA), NRF2 (#ABE413), NQO1 (#N5288), p-CREB (Ser133; #06-519; 1:1,000; Sigma-Aldrich), PGC-1α (#GTX37356; 1:1,000; GeneTex, Irvine, CA, USA), B-cell lymphoma 2 (BCL2; #IR94-392; 1:1,000; iReal Biotechnology, New Taipei City, Taiwan), or glyceraldehyde-3-phosphate dehydrogenase (GAPDH; #30000002; 1:1,000; MDBio, Taipei, Taiwan) primary antibody at room temperature 2 h or 4°C overnight. The immune complexes were detected using horseradish peroxidase (HRP)-conjugated goat anti-mouse or goat anti-rabbit IgG antibody (1:5,000; GeneTex) and chemiluminescent HRP substrate (Millipore, Burlington, MA, USA). Immunoreactive bands were captured (ImageQuant™ LAS 4000, GE Healthcare, Chicago, IL, USA) and quantified (Multi Gauge V3.0 software, Fujifilm, Tokyo, Japan).

[3] = tested on: NRF2; experiment: Western blot NRF2 in MPP^+-treated BE(2)-M17 cells; assay type: cell-based, human; conditions: BE(2)-M17, compound 10 μM + 0.62 mM MPP^+; MPP^+ alone 75%; untreated = 100%
Method: as §1

[4] = oxygen radical antioxidant capacity (OxiSelect kit); conditions: at 4–100 μM concentration
Method: The test of oxygen radical antioxidant capacity (Ou et al., [2001]) was performed using OxiSelect™ kit (Cell Biolabs, San Diego, CA, USA). Briefly, trolox standards (2.5–50 μM) and LM compounds (4–100 μM) were prepared using a serial dilution in a mixture containing 50% acetone and 50% water. After adding fluorescein to blank (50% acetone/50% water), standards, or samples, the mixture was mixed and incubated at 37°C for 30 min. Subsequently, free radical initiator 2,2′-azobis(2-methylpropionamidine) dihydrochloride (AAPH) was added to generate peroxyl radicals (ROO•). The quenching of fluorescent probe over time was recorded at 480 nm excitation and 520 nm emission for 60 min (Bio-Tek FLx800). To quantify the oxygen radical absorbance capacity, the area under the curve (AUC) for blank, standard and samples were calculated. After subtraction of the blank, trolox equivalent (μM) of samples were determined using a calibration curve with trolox standards.

[5] = tested on: GCLC; experiment: Western blot GCLC in MPP^+-treated BE(2)-M17 cells; assay type: cell-based, human; conditions: BE(2)-M17, compound 10 μM + 0.62 mM MPP^+; MPP^+ alone 86%; untreated = 100%
Method: as §1

[6] = tested on: MPP^+-treated BE(2)-M17 cells; experiment: cell viability (MTT) in MPP^+-treated BE(2)-M17 cells; assay type: cell-based; conditions: Homo sapiens, read-out: cell viability
Method: To examine neuroprotective potential of LM compounds, BE(2)-M17 cells were plated onto 96-well plate [1 × 10^4/well for cell viability and lactate dehydrogenase (LDH) release assays] or 24-well plate (5 × 10^4/well for ROS assay) with retinoic acid addition (5 μM) on day 1 to initiate neuronal differentiation. On day 5, after removing retinoic acid, cells were pre-treated with LM compounds (1–10 μM) for 8 h, followed by addition of 0.62 mM MPP^+ for 40 h. The cell viability was evaluated by MTT assay as described, and the release of LDH in cell culture medium was measured by using LDH cytotoxicity assay kit (Cayman Chemical). The absorbance was read at 490 nm with Multiskan GO microplate reader (Thermo Fisher Scientific).

[7] = BE(2)-M17, compound 10 μM + 0.62 mM MPP^+, MPP^+ alone 2.6
[8] = BE(2)-M17, compound 10 μM + 0.62 mM MPP^+

Compound | number of process [1, 7] | neurite length [1, 8] | PGC-1α level [2] | NRF2 level [3] | oxygen radical antioxidant capacity, trolox equivalent [4] [µM] | GCLC level [5] | viability at 10 µM [6] [%] | number of branch ([1]; BE(2)-M17, 0.62 mM MPP^+ alone, untreated 1.2, not significant) | number of process ([1]; BE(2)-M17, 0.62 mM MPP^+ alone, untreated 2.9) | total length of neurite ([1]; BE(2)-M17, 0.62 mM MPP^+ alone, untreated 26.0 μm) [μm] | viability at 10 µM ([6]; retinoic acid-differentiated BE(2)-M17, compound 10 μM 8 h, then 0.62 mM MPP^+ 40 h, MPP^+ alone 81%, untreated = 100%) [%]
O=C(/C=C/c1ccccc1O)c1c(O)c2ccccc2oc1=O [LM-036] | 2.8–3.0 | 26.2–27.2 μm | 98–109% | 99–101% | 15 to 40 | 99–106% | 95 to 97 |  |  |  | 
C[n+]1ccc(-c2ccccc2)cc1 [MPP^+, 1-methyl-4-phenyl pyridinium, reference compound] |  |  |  |  |  |  |  | 1.1 | 2.6 | 24.2 | 
CN(C)c1ccc(/C=C/C(=O)c2c(O)c3ccccc3oc2=O)cc1 [LM-021, (E)-3-(3-(4-(dimethylamino)phenyl)acryloyl)-4-hydroxy-2H-chromen-2-one] | 2.8–3.0 | 26.2–27.2 μm | 98–109% | 99–101% | 2 to 36 | 99–106% | 95 to 97 |  |  |  | 
Cc1ccc(/C=C/C(=O)c2c(O)c3ccccc3oc2=O)cc1 [LM-016] |  |  | 98–109% | 99–101% | 0 to 10 | 99–106% |  |  |  |  | 95 to 97

From PMC11473416, “Coumarin-chalcone derivatives as dual NLRP1 and NLRP3 inflammasome inhibitors targeting oxidative stress and inflammation in neurotoxin-induced HMC3 and BE(2)-M17 cell models of Parkinson's disease” (Frontiers in Aging Neuroscience, 2024)
